In patent US20240360114A1 (SIRONAX LTD., priority 2021, published 2024) one finds EC50 data, which are given here for 40 compounds.

The subject of one experiment is HT-1080 cells. As to the kind of experiment: HT-1080 cell viability assay (ferroptosis induced by RSL3, Cell Titer-Glo). It counts as cell-based. As to conditions: Homo sapiens, HT-1080, 20 h, ferroptosis inducer RSL3, 20 hours, ferroptosis inhibitory activity, Table 2. Summed up:
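Cells seeded overnight, then co-treated with RSL3 and compound (3-fold, 10-point dilution, top 1.1 μM) for 20 hours. Viability by CellTiter-Glo luminescence, normalized to untreated controls; EC50 from sigmoidal non-linear regression.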
Take `CCOCCOC1CCN(c2ccc(NC3CC4(CC(N)C4)C3)c(C)c2)CC1` (stereo not shown) [Compound 470, N2-(4-(4-(2-ethoxyethoxy)piperidin-1-yl)-2-methylphenyl)spiro[3.3]heptane-2,6-diamine]: the half-maximal effective concentration (EC50) lay in the range of 0.1 to 100 nM.
On to `Cc1nc(N2CC(C)(C)OC(C)(C)C2)ccc1NC1CC2(CC(N)C2)C1` (stereo not shown) [Compound 515, N2-(2-methyl-6-(2,2,6,6-tetramethylmorpholino)pyridin-3-yl)spiro[3.3]heptane-2,6-diamine], for which the EC50 lay within 0.1 to 100 nM.
The same measure, in the same setting: the result for `CC1(C)CCC(c2ccc(NCCCN3CCCC3)cc2)CC1` [Compound 171, 4-(4,4-dimethylcyclohexyl)-N-(3-(pyrrolidin-1-yl)propyl)aniline] reads 0.1 to 100 nM; that for `CC(C)C1CCN(c2ccc(NC3CCC(N)CC3)cc2)CC1` (stereo not shown) [Compound 63, N1-(4-(4-isopropylpiperidin-1-yl)phenyl)cyclohexane-1,4-diamine], 0.1 to 100 nM; that for `CC1(C)CCC(c2ccc(NC3CCC(NS(N)(=O)=O)CC3)cc2)CC1` (stereo not shown) [Compound 249, N-(4-{[4-(4,4-dimethylcyclohexyl)phenyl]amino}cyclohexyl)aminosulfonamide], 0.1 to 100 nM.
On the same count and under the same terms, then `CC1CN(c2ccc(NC3C4CC5CC3CC(N)(C5)C4)cc2)CC(C)O1` (stereo not shown) [Compound 421A, N^4-(4-(2,6-dimethylmorpholino)phenyl)adamantane-1,4-diamine], with 0.1 to 100 nM; and `CC1CN(c2ccc(NC3CC4(CC(N)C4)C3)cn2)CC(C)O1` (stereo not shown) [Compound 477, N2-(6-(2,6-dimethylmorpholino)pyridin-3-yl)spiro[3.3]heptane-2,6-diamine], with 100 to 1000 nM.
The same measure, in the same setting: then `NCC1CCC(Nc2ccc(N3CCC(C(F)(F)F)CC3)cc2)CC1` (stereo not shown) [Compound 3, N-(4-(aminomethyl)cyclohexyl)-4-(4-(trifluoromethyl)piperidin-1-yl)aniline], with 0.1 to 100 nM; and `FC(F)(F)C1CCN(c2ccc(NC3CCOCC3)cc2)CC1` [Compound 17, N-(4-(4-(trifluoromethyl)piperidin-1-yl)phenyl)tetrahydro-2H-pyran-4-amine], with 0.1 to 100 nM.
`N[C@H]1CC[C@H](CNc2ccc(N3CCC(C(F)(F)F)CC3)nc2F)CC1` [Compound 395, N-(((1r, 4r)-4-aminocyclohexyl)methyl)-2-fluoro-6-(4-(trifluoromethyl)piperidin-1-yl)pyridin-3-amine] yielded a concentration giving a half-maximal response (EC50) of 0.1 to 100 nM.
The same measure, in the same setting: then `Cc1nc(N2C[C@@H](C)N(CC(F)(F)F)[C@@H](C)C2)ccc1NC[C@H]1CC[C@H](N)CC1` [Compound 543, N-(((1r,4R)-4-aminocyclohexyl)methyl)-6-((3R,5S)-3,5-dimethyl-4-(2,2,2-trifluoroethyl)piperazin-1-yl)-2-methylpyridin-3-amine], with 0.1 to 100 nM.
On to `CC(C)C1CCN(c2ncc(NC[C@H]3CC[C@H](NC(=O)C4CNC(=O)C4)CC3)cn2)CC1` (stereo partly shown) [Compound 367, N-((1r,4r)-4-(((2-(4-isopropylpiperidin-1-yl)pyrimidin-5-yl)amino)methyl)cyclohexyl)-5-oxopy rrolidine-3-carboxamide], for which the concentration giving a half-maximal response (EC50) lay in the range of 0.1 to 100 nM.
With `CC(C)(C)c1ccc(NC[C@H]2CC[C@@H](N)CC2)cc1` [Compound 288, N-(((1s, 4s)-4-aminocyclohexyl)methyl)-4-(tert-butyl)aniline], the EC50 was in the range of 0.1 to 100 nM.
The same measure, in the same setting: then `CC(C)(C)c1ccc(NC2CCC(NCCCN)CC2)cc1` (stereo not shown) [Compound 267, 1-N-(3-aminopropyl)-4-N-(4-(tert-butyl)phenyl)cyclohexane-1,4-diamine], with 1000 to 10000 nM.
Still for that read-out and setting: the result for `CC1CCN(c2ccc(NC3CCC(N)CC3)cc2)CC1` (stereo not shown) [Compound 60, N1-(4-(4-methylpiperidin-1-yl)phenyl)cyclohexane-1,4-diamine] reads 0.1 to 100 nM.
On the same count and under the same terms, then `Cc1cc(N2CCC(C(F)(F)F)CC2)nc(F)c1NC1CCC(CN)CC1` (stereo not shown) [Compound 22, N-(4-(aminomethyl)cyclohexyl)-2-fluoro-4-methyl-6-(4-(trifluoromethyl)piperidin-1-yl)pyridin-3-amine], with 100 to 1000 nM; and `Cc1nc(N2CCC(C(F)(F)F)CC2)ccc1NC[C@H]1CC[C@H](NC(=O)C2CNC(=O)C2)CC1` (stereo partly shown) [Compound 378, N-((1r,4r)-4-(((2-methyl-6-(4-(trifluoromethyl)piperidin-1-yl)pyridin-3-yl)amino)methyl)cyclohexyl)-5-oxopyrrolidine-3-carboxamide], with 0.1 to 100 nM; and `Cc1nc(N2CC(C)OC(C)C2)ccc1NCCC1CCC(N)C1` (stereo not shown) [Compound 490, N-(2-(3-aminocyclopentyl)ethyl)-6-(2,6-dimethylmorpholino)-2-methylpyridin-3-amine], with 0.1 to 100 nM.
For the compound `CC(C)C1CCN(c2ncc(NC3CCC(C(N)=O)CC3)cn2)CC1` (stereo not shown) [Compound 404, 4-((2-(4-isopropylpiperidin-1-yl)pyrimidin-5-yl)amino)cyclohexane-1-carboxamide], the EC50 is 0.1 to 100 nM.
Turning to `CC(=O)N1C(C)CN(c2ccc(NC3CC4(CC(N)C4)C3)c(C)n2)CC1C` (stereo not shown) [Compound 555, 1-(4-(5-((6-aminospiro[3.3]heptan-2-yl)amino)-6-methylpyridin-2-yl)-2,6-dimethylpiperazin-1-yl)ethan-1-one], the EC50 is 0.1 to 100 nM.
Same read-out and setting: the result for `NC1CCC(Nc2ccc3c(c2)CCC3)CC1` (stereo not shown) [Compound 162, N1-(2,3-dihydro-1H-inden-5-yl)cyclohexane-1,4-diamine] reads 100 to 1000 nM; that for `O=C1NC[C@H](C(=O)NC2CC(Nc3ccc(C4CCCCC4)cc3)C2)N1` (stereo partly drawn) [Compound 113, (R)—N-(3-((4-cyclohexylphenyl)amino)cyclobutyl)-2-oxoimidazolidine-4-carboxamide], 100 to 1000 nM; that for `O=C(O)C1CCC(Nc2ccc(N3CCC(C(F)(F)F)CC3)cc2)CC1` (stereo not shown) [Compound 9, 4-((4-(4-(trifluoromethyl)piperidin-1-yl)phenyl)amino)cyclohexane-1-carboxylic acid], 1000 to 10000 nM.
With `Cc1nc(N2CCOCC2)ccc1NC1C2CC3CC1CC(CN)(C3)C2` (stereo not shown) [Compound 538A, N-((2r,5s)-5-(aminomethyl)adamantan-2-yl)-2-methyl-6-morpholinopyridin-3-amine], the EC50 is 0.1 to 100 nM.
Still for that read-out and setting: the result for `COCCCCOc1cc(NC2CCC(N)C2)ccc1C(C)(C)C` (stereo not shown) [Compound 302, N1-(4-(tert-butyl)-3-(4-methoxybutoxy)phenyl)cyclopentane-1,3-diamine] reads 0.1 to 100 nM; that for `Cc1nc(N2CCOC(C)C2)ccc1NC1C2CC3CC1CC(CN)(C3)C2` (stereo not shown) [Compound 520, N-(5-(aminomethyl)adamantan-2-yl)-2-methyl-6-(2-methylmorpholino)pyridin-3-amine], 0.1 to 100 nM.
As for `CC1CN(c2ccc(NC[C@H]3CC[C@H](N)CC3)c(C#N)c2)CC(C)O1` (stereo partly shown) [Compound 484, 2-((((1r,4r)-4-aminocyclohexyl)methyl)amino)-5-(2,6-dimethylmorpholino) benzonitrile], the concentration giving a half-maximal response (EC50) lay in the range of 1000 to 10000 nM.
On the same count and under the same terms, the result for `CC1(C)CCC(c2ccc(NCCN)cc2)CC1` [Compound 176, N1-(4-(4,4-dimethylcyclohexyl)phenyl)ethane-1,2-diamine] reads 100 to 1000 nM; that for `N[C@H]1CC[C@H](CNc2ccc(N3CCC(C(F)(F)F)CC3)nc2)CC1` [Compound 398, N-(((1r,4r)-4-aminocyclohexyl)methyl)-6-(4-(trifluoromethyl)piperidin-1-yl)pyridin-3-amine], 0.1 to 100 nM.
Compound `Cc1nc(N2CCC(C(C)C)CC2)ccc1NC1CCC(CN)CC1` (stereo not shown) [Compound 31, N-(4-(aminomethyl)cyclohexyl)-6-(4-isopropylpiperidin-1-yl)-2-methylpyridin-3-amine] registered an EC50 of 0.1 to 100 nM.
As to `CC(C)C1CCN(c2ncc(NC3C4CC5CC3CC(N)(C5)C4)cn2)CC1` (stereo not shown) [Compound 368, N4-(2-(4-isopropylpiperidin-1-yl)pyrimidin-5-yl)adamantane-1,4-diamine], the concentration giving a half-maximal response (EC50) was 0.1 to 100 nM.
Same read-out and setting: the result for `CC(C)C1CCN(c2ncc(NC3CCC(N)C3)cn2)CC1` (stereo not shown) [Compound 38, N1-(2-(4-isopropylpiperidin-1-yl)pyrimidin-5-yl)cyclopentane-1,3-diamine] reads 0.1 to 100 nM; that for `Cc1cc(N2CCC(C(F)(F)F)C2)ccc1NC[C@H]1CC[C@H](N)CC1` (stereo partly shown) [Compound 419, N-(((1r,4r)-4-aminocyclohexyl)methyl)-2-methyl-4-(3-(trifluoromethyl)pyrrolidin-1-yl)aniline], 0.1 to 100 nM.
Still for that read-out and setting: the result for `CC(C)(C)c1ccc(NC2CCC(NC(=O)[C@H]3CNC(=O)N3)CC2)cc1` (single isomer, unassigned) [Compound 115A] reads 100 to 1000 nM.
Same read-out and setting: the result for `N[C@H]1CC[C@H](Nc2ccc(N3CCC(C(F)(F)F)CC3)cc2)CC1` [Compound 354, (1r,4r)-N1-(4-(4-(trifluoromethyl)piperidin-1-yl)phenyl)cyclohexane-1,4-diamine] reads 0.1 to 100 nM; that for `CCOC1CCN(c2ccc(NC3CC4(CC(N)C4)C3)c(C)c2)CC1` (stereo not shown) [Compound 471, N2-(4-(4-ethoxypiperidin-1-yl)-2-methylphenyl)spiro[3.3]heptane-2,6-diamine], 0.1 to 100 nM; that for `Cc1cc(N2CCC(C)(C)CC2)ccc1NC[C@H]1CC[C@H](N)CC1` [Compound 382, N-(((1r,4r)-4-aminocyclohexyl)methyl)-4-(4,4-dimethylpiperidin-1-yl)-2-methylaniline], 0.1 to 100 nM.

The experiment is the same for the next values; noted with them: Homo sapiens, HT-1080, 20 h, ferroptosis inducer RSL3, 20 hours, ferroptosis inhibitory activity, Table 3.
Compound `NC1CC2(C1)CC(Nc1ccc3cc(N4CCOC(C(F)(F)F)C4)ccc3c1)C2` (stereo not shown) [Compound 653, N2-(6-(2-(trifluoromethyl)morpholino)naphthalen-2-yl)spiro[3.3]heptane-2,6-diamine] yielded an EC50 of 0.1 to 100 nM.

Staying with this experiment, now noted: ferroptosis inducer RSL3, 20 hours, ferroptosis inhibitory activity, Table 2.
Take `CCC(C)c1ccc(NC2CCC(N)CC2)cc1` (single isomer, unassigned) [Compound 289A, 1-N-(4-(sec-butyl)phenyl)cyclohexane-1,4-diamine]: the 50% effective concentration (EC50) is 0.1 to 100 nM.
The same measure, in the same setting: the result for `CC1(C)CCC(c2ccc(NC3CCC(C(N)=O)CC3)cc2)CC1` (single isomer, unassigned) [Compound 159B, 4-((4-(4,4-dimethylcyclohexyl)phenyl)amino)cyclohexane-1-carboxamide] reads 100 to 1000 nM.
